{
  "source": "patent US9399627B2",
  "about": "“Substituted macrocyclic compounds having proteasome inhibitory activity” (THE REGENTS OF THE UNIVERSITY OF CALIFORNIA, priority 2012, dated 2016)",
  "key": {"60 cancerous cell lines": {"system": "60 cancerous cell lines", "assay": "NCI 60-cell screen", "format": "cell-based", "description": "(§1) TIR-199 activity in inhibiting cancer cell growth was tested in a National Cancer Institute (“NCI”) 60-cell screen in triplicate (see FIGS. 3-14).\n(§2) The NCI 60-cell screens were initially tested with 10 μM dose of TIR-199. […] Due to the initial results being so promising, a full dose-response study was performed in triplicate with the NCI cell lines."}, "OVCAR-5": {"system": "OVCAR-5", "assay": "NCI 60-cell screen dose-response study, OVCAR-5", "format": "cell-based", "conditions": "Homo sapiens, dose-response study in triplicate, most sensitive cell line", "description": "as §1, §2"}, "[1]": {"system": "NCI-H226 lung cancer line", "assay": "NCI 60-cell screen dose-response study, NCI-H226", "format": "cell-based", "description": "as §1, §2"}, "RXF 393 renal cancer": {"system": "RXF 393 renal cancer", "assay": "NCI 60-cell screen dose-response study, RXF 393", "format": "cell-based", "description": "as §1, §2"}, "TK-10 renal cancer": {"system": "TK-10 renal cancer", "assay": "NCI 60-cell screen dose-response study, TK-10", "format": "cell-based", "description": "as §1, §2"}, "HCC-2998 colon cancer": {"system": "HCC-2998 colon cancer", "assay": "NCI 60-cell screen dose-response study, HCC-2998", "format": "cell-based", "description": "as §1, §2"}, "PC3 prostate cancer": {"system": "PC3 prostate cancer", "assay": "NCI 60-cell screen dose-response study, PC3", "format": "cell-based", "description": "as §1, §2"}, "BT-549 breast cancer": {"system": "BT-549 breast cancer", "assay": "NCI 60-cell screen dose-response study, BT-549", "format": "cell-based", "description": "as §1, §2"}, "cancerous cell lines": {"system": "cancerous cell lines", "assay": "Confirmatory in vitro cell-based screens", "conditions": "confirmatory in-vitro experiments in various laboratories"}, "[2]": {"system": "multiple myeloma cell lines", "assay": "Studies with multiple myeloma cell lines", "format": "cell-based"}},
  "data": [
    {"smiles": "CCCCCCCCCCCCNC(=O)N[C@H](C(=O)N[C@H]1/C=C/CCNC(=O)/C=C/[C@H](C)NC1=O)C(C)C", "note": "[TIR-199]", "values": [
      {"measurement": "growth suppression and/or apoptosis induction in dose response study", "setting": "60 cancerous cell lines; 60 cancerous cell lines, varying log10 amounts (FIG. 3)", "result": "suppressed the growth and/or induced apoptosis in every cancerous cell line"},
      {"measurement": "suppression of cancer cell growth", "setting": "60 cancerous cell lines; initial single dose, 10 μM", "result": "effectively suppressed cancer cell growth universally across the cell lines"},
      {"measurement": "effectiveness on kidney cancer activity", "setting": "60 cancerous cell lines; kidney (renal) cancer lines", "result": "surprisingly potent"},
      {"measurement": "IC50", "setting": "OVCAR-5", "result": 10, "unit": "nM"},
      {"measurement": "potency against cell line", "setting": "[1]", "result": "Particular potency"},
      {"measurement": "sensitivity of cell line", "setting": "RXF 393 renal cancer", "result": "particularly sensitive"},
      {"measurement": "sensitivity of cell line", "setting": "TK-10 renal cancer", "result": "particularly sensitive"},
      {"measurement": "sensitivity of cell line", "setting": "HCC-2998 colon cancer", "result": "particularly sensitive"},
      {"measurement": "sensitivity of cell line", "setting": "PC3 prostate cancer", "result": "particularly sensitive"},
      {"measurement": "sensitivity of cell line", "setting": "BT-549 breast cancer", "result": "particularly sensitive"},
      {"measurement": "potency against cancerous cell lines", "setting": "cancerous cell lines", "result": "low nanomolar potency"},
      {"measurement": "potency compared with bortezomib", "setting": "[2]", "result": "nearly as potent as the FDA approved proteasome inhibitor, bortezomib"}
    ]}
  ]
}
